Legend:
hVEGF-A-#44 cell line = experiment: Affinity Maturation and FCM, cells in Affinity Maturation Gate; format: cell-based, chicken; conditions: A66 10 μM, PI3Kα Inhibitor 2 500 nM, Day 7, versus conditions without drug
Description: (§1) Frozen stocks of the hVEGF-A #33 cell line and the hVEGF-A #44 cell line (3.0×10^6 cells) were each awaken with a CS(−) medium, using a 25 cm^2 Flask (Corning, 430639), and were then cultured in a CO2 incubator (SANYO CO2 Incubator MCO-20AIC, 39.5° C., 5% CO2). On the following day, the cells were seeded on a 6-well dish (Nunc, 140675) to a cell density of 1.0×10^4 cells/mL (wherein the cell concentration and the survival rate were measured using CASY cell counter (Nepa Gene)). The cells were cultured in a CS(+) medium, in the presence or absence of a PI3Kα inhibitor (A66: 10 μM, PI3Kα Inhibitor 2: 500 nM). Moreover, after the cells had been cultured for 2 days, individual samples were subcultured under the same conditions to result in a cell density of 1.0×10^4 cells/mL. […] A plot, in which the vertical axis indicated AF647 (AF647-labeled hVEGF-A) and the longitudinal axis indicated PE (Goat Anti-Human IgG-PE), was developed, and the percentage of PE+(hIgG+)/[…] cells was then calculated. […] The percentage of clones with improved antigen-binding ability was calculated by counting the number of cells existing in this Affinity Maturation Gate and then dividing the obtained value by the total number of the analyzed cells. […]

hVEGF-A-#33 cell line = experiment: as above; format: cell-based, chicken; conditions: A66 10 μM, PI3Kα Inhibitor 2 500 nM, Day 7, versus conditions without drug
Description: as §1

Compound: Cc1nc(NC(=O)N2CCC[C@H]2C(N)=O)sc1-c1csc(C(C)(C)C)n1 [A66]
- percentage of the cells with improved antigen-binding ability (Affinity Maturation Gate, 5 or more times increased in MFI) (hVEGF-A-#44 cell line): increased
- percentage of the cells with improved antigen-binding ability (Affinity Maturation Gate, 5 or more times increased in MFI) (hVEGF-A-#33 cell line): increased
